The values that follow come from ChEMBL document CHEMBL1145498, “A systematic interaction map of validated kinase inhibitors with Ser/Thr kinases” (Proc Natl Acad Sci U S A, 2007).

The structures appear in SMILES notation.

One may read the ΔTm as the change in melting temperature against a reference sample.

The target of assay [1] is Dual specificity protein kinase CLK2 (Homo sapiens) (UniProt P49760).
In assay [2] the target is Cyclin-dependent kinase 2 (Homo sapiens, UniProt P24941).
Assay [3] concerns the target Serine/threonine-protein kinase RIO2 (Homo sapiens) (UniProt Q9BVS4).
Assay [4] addresses Serine/threonine-protein kinase 26 (Homo sapiens) (UniProt Q9P289).
Assay [5] has as its target Serine/threonine-protein kinase 10 (Homo sapiens) (UniProt O94804).
Assay [6] concerns the target T1, Mitogen-activated protein kinase kinase kinase 5 (Homo sapiens) (UniProt Q99683).
T1 sequence (whole entry): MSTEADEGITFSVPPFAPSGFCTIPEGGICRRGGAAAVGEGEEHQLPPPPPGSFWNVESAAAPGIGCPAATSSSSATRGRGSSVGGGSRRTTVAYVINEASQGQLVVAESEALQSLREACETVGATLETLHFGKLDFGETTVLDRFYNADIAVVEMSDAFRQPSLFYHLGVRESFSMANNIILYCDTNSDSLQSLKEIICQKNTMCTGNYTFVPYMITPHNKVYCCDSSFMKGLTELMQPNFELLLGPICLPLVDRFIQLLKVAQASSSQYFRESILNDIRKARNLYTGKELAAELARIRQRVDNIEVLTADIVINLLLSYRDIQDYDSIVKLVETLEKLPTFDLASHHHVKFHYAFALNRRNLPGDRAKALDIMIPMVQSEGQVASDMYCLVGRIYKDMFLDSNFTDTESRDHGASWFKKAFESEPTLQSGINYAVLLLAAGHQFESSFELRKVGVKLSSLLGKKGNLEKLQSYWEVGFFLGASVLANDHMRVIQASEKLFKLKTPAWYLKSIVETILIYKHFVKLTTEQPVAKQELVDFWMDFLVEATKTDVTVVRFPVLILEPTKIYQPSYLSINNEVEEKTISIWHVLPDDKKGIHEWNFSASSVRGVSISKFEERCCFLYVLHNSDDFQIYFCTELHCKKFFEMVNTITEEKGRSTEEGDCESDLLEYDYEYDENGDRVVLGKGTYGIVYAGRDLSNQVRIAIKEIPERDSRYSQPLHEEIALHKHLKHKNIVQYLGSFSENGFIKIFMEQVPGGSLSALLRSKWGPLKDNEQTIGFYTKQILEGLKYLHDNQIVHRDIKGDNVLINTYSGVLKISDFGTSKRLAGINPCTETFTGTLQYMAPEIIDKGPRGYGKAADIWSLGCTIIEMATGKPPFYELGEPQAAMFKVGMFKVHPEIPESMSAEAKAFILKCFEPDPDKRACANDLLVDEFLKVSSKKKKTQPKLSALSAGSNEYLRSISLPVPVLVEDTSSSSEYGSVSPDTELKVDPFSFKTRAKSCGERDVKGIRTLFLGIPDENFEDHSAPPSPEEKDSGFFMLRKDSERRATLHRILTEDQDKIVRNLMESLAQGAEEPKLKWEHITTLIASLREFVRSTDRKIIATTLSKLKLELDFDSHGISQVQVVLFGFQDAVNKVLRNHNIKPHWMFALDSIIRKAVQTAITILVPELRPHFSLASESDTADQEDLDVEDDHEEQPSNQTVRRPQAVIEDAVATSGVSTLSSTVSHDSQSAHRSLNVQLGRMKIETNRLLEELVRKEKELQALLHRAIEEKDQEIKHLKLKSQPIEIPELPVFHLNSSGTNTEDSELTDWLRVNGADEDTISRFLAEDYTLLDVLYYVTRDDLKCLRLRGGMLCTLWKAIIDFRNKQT

For assay [7], the target named is Calcium/calmodulin-dependent protein kinase type II subunit alpha (Homo sapiens) (UniProt Q9UQM7).
Assay [8] addresses Serine/threonine-protein kinase OSR1 (Homo sapiens) (UniProt O95747).
The target of assay [9] is Calcium/calmodulin-dependent protein kinase type II subunit beta (Homo sapiens) (UniProt Q13554).
The target in assay [10] is Death-associated protein kinase 3 (Homo sapiens) (UniProt O43293).
The target of assay [11] is cAMP-dependent protein kinase catalytic subunit alpha (Homo sapiens) (UniProt P17612).
Assay [12] concerns the target Serine/threonine-protein kinase PLK1 (Homo sapiens) (UniProt P53350).
Assay [13] deals with Serine/threonine-protein kinase PAK 6 (Homo sapiens) (UniProt Q9NQU5).
The target in assay [14] is T2, Myotonin-protein kinase (Homo sapiens) (UniProt Q09013).
T2 sequence (whole entry): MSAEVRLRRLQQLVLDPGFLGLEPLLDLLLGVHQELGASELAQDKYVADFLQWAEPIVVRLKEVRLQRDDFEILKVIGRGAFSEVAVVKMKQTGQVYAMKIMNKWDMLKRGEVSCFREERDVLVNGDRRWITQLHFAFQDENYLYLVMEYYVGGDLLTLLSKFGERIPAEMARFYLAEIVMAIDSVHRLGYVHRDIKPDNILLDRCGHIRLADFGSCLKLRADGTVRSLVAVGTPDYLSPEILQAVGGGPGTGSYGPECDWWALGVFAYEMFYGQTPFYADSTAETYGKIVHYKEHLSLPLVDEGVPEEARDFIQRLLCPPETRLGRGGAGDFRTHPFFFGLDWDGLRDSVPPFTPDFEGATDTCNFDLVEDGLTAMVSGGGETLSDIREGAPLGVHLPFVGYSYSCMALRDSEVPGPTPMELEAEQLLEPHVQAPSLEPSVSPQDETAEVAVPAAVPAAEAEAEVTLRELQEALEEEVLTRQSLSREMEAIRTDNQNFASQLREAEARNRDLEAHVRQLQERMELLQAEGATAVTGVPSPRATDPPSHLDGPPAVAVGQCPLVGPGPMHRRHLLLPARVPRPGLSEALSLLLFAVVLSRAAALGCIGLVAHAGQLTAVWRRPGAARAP

Assay [15] has as its target Serine/threonine-protein kinase Chk2 (Homo sapiens, UniProt O96017).
For assay [16], the target named is Serine/threonine-protein kinase VRK2 (Homo sapiens) (UniProt Q86Y07).
The target in assay [17] is Serine/threonine-protein kinase Nek6 (Homo sapiens) (UniProt Q9HC98).
Assay [18] addresses Serine/threonine-protein kinase pim-1 (Homo sapiens) (UniProt P11309).

Calcium/calmodulin-dependent protein kinase type II subunit alpha (Homo sapiens), sequence (Q9UQM7 whole entry): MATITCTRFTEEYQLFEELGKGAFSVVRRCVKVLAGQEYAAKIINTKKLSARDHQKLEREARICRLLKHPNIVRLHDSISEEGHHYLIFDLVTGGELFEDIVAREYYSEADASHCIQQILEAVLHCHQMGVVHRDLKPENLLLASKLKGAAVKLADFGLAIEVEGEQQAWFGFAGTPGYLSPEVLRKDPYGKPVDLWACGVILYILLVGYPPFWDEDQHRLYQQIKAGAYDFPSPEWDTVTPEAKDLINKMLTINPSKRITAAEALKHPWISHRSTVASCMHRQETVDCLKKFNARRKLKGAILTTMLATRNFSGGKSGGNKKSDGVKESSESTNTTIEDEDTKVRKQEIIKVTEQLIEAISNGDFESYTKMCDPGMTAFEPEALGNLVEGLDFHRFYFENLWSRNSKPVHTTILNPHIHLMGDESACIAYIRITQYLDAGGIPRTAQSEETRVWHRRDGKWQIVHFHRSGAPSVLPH
Serine/threonine-protein kinase 10 (Homo sapiens), sequence (O94804 whole entry, looked up): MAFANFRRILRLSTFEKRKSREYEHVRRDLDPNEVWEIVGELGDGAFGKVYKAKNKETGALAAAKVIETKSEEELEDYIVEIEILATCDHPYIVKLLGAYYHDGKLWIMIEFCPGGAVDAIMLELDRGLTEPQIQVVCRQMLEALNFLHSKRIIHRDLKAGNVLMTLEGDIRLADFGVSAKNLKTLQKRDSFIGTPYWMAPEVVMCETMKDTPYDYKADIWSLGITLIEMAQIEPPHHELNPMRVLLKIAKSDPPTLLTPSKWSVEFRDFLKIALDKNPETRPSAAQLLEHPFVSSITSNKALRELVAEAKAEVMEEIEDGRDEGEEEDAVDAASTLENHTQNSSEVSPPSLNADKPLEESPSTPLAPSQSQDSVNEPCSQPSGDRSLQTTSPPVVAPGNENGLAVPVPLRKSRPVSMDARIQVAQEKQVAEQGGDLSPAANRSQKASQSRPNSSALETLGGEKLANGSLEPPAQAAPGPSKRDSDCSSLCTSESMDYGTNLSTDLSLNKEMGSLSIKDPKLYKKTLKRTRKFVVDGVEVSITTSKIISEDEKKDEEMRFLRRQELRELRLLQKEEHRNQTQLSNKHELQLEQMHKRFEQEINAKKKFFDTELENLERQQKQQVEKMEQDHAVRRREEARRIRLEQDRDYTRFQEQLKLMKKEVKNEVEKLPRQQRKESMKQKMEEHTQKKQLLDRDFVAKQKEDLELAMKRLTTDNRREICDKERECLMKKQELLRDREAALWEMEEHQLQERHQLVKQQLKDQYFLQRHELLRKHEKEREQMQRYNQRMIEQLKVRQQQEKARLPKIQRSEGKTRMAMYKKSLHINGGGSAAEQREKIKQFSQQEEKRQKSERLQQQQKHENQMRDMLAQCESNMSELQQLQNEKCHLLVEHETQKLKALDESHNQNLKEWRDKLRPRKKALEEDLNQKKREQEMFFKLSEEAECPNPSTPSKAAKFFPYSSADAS
Serine/threonine-protein kinase RIO2 (Homo sapiens), sequence (Q9BVS4 whole entry, looked up): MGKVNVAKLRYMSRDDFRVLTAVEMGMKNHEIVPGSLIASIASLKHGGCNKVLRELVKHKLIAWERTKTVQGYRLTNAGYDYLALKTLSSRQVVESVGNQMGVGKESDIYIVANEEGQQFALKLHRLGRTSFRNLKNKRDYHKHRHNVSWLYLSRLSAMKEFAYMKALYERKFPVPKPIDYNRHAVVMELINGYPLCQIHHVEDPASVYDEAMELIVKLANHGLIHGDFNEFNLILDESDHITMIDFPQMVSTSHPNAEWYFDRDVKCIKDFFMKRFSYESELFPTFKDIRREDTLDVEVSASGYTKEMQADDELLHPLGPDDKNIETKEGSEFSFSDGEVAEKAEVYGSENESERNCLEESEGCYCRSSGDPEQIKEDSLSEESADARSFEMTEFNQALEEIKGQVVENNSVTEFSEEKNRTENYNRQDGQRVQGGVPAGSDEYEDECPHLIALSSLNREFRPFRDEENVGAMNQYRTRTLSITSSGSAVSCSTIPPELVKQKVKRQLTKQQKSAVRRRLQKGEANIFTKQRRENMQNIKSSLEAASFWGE
Serine/threonine-protein kinase 26 (Homo sapiens), sequence (Q9P289 2-416 limits assumed): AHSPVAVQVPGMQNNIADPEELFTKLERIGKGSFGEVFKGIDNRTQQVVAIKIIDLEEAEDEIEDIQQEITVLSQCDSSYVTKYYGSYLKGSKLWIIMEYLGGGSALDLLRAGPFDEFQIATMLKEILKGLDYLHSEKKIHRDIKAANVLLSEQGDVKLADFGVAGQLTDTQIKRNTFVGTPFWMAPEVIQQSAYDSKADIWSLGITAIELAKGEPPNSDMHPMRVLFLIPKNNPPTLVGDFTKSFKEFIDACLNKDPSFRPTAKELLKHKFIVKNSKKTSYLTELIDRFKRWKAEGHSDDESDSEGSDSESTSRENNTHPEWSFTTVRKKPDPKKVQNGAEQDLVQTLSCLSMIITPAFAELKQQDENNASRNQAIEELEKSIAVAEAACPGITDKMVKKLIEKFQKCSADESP
Dual specificity protein kinase CLK2 (Homo sapiens), sequence (P49760 whole entry, looked up): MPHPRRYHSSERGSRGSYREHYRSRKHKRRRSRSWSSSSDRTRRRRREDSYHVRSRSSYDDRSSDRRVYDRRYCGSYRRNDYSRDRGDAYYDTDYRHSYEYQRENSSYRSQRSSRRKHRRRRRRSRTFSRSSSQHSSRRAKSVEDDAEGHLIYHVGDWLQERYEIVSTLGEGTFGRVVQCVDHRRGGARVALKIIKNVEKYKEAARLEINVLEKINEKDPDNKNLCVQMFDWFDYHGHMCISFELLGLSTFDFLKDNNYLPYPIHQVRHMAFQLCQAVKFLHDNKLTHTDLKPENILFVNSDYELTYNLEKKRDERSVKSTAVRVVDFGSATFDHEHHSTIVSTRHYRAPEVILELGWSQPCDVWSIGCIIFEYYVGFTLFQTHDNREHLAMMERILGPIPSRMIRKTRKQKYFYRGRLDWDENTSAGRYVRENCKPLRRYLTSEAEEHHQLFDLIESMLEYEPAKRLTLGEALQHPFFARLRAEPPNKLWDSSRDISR
Serine/threonine-protein kinase pim-1 (Homo sapiens), sequence (P11309 whole entry, looked up): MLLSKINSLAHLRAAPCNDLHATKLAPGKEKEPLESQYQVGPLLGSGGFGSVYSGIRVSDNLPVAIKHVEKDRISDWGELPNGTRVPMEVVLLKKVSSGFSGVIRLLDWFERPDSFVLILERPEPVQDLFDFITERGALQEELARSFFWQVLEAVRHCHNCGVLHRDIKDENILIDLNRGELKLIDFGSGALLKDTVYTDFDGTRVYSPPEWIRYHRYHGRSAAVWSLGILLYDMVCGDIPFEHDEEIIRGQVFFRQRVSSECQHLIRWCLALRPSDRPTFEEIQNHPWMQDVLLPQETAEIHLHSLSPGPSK
Death-associated protein kinase 3 (Homo sapiens), sequence (O43293 whole entry, looked up): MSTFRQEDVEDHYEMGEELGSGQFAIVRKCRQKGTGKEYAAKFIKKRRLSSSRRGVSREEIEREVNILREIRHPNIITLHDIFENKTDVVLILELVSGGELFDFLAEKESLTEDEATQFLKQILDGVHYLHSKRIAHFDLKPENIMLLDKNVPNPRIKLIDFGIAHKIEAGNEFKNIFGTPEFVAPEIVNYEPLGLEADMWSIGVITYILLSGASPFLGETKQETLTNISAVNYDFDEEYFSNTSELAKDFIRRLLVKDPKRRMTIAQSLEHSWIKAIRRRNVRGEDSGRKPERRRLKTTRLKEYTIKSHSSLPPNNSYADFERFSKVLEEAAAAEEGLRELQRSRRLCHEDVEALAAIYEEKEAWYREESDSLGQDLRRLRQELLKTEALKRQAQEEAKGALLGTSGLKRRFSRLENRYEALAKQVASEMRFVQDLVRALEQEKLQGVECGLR
Serine/threonine-protein kinase PLK1 (Homo sapiens), sequence (P53350 whole entry): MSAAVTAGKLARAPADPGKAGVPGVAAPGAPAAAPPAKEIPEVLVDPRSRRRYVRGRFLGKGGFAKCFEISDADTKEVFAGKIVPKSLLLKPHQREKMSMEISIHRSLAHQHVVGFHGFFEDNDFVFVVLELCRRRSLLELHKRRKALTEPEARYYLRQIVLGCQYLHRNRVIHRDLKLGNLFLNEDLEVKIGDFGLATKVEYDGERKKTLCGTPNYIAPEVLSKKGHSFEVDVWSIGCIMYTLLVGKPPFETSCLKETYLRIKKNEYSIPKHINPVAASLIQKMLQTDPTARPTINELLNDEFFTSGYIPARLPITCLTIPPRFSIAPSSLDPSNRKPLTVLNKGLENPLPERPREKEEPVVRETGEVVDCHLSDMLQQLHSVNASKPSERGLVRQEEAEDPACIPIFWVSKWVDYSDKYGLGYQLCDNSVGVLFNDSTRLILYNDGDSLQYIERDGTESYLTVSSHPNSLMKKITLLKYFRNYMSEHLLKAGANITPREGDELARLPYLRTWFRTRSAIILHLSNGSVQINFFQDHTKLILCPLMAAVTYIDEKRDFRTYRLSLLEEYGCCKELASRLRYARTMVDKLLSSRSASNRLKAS
Serine/threonine-protein kinase OSR1 (Homo sapiens), sequence (O95747 2-527 limits assumed): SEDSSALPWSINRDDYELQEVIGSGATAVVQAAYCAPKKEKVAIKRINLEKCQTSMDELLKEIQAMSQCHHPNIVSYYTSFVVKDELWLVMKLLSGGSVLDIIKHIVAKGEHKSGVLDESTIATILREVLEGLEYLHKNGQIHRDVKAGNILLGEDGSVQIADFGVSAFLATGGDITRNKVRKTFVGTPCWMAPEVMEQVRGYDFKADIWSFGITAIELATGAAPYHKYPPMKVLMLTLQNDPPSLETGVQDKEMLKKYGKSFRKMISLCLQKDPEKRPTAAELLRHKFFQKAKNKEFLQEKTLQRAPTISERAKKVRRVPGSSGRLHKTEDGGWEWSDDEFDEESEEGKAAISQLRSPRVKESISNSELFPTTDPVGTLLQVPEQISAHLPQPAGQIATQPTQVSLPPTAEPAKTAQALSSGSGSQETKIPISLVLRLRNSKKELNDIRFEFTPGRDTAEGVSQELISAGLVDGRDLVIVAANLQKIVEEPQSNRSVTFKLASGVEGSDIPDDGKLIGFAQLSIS

In the case of `O=C1C=C2C(=Nc3c2c2c(c4c3=NC3=C4CCC=C3)C=NC=2)CC1`, the ΔTm came to 4.2 °C in [1]; 4 °C in assay [2]; 4.7 °C in assay [3]; 8.5 °C in assay [4]; 3.9 °C in assay [5]; 5.7 °C in [6]. Besides, the ΔTm in assay [7] amounted to 3.7 °C; in [8] it was 2.1 °C; in assay [9], 0.1 °C; in [10] it was 3.8 °C; in [11], 2.1 °C; in assay [12], 11.9 °C. In addition, the ΔTm came out at 3.1 °C in assay [13]; 5.1 °C in assay [14]; 7.9 °C in [15]; 4.7 °C in assay [16]; 0.5 °C in assay [17]; 7.5 °C in assay [18].

For the molecule `O=C(O)/C=C/c1cc(CO)ccc1CO`, the ΔTm in assay [1] turned out to be 0.6 °C; in assay [2], 0.9 °C; in assay [3], 0.4 °C; in assay [4], 0.2 °C; in assay [5] it was 0.5 °C; in [6], 1.2 °C. Moreover, the ΔTm in [7] was -0.1 °C; in assay [8], 0.5 °C; in assay [9], 0.4 °C; in assay [10] it was 0.8 °C; in assay [11], 0.4 °C; in assay [12], 0.3 °C. Moreover, the ΔTm is -0.4 °C in [13]; -0.1 °C in assay [14]; 0.6 °C in [15]; 0.3 °C in assay [16]; -0.2 °C in [17]; 0.6 °C in assay [18].
